Measured values reported in ChEMBL document CHEMBL1201862, “PubChem BioAssay data set” (2004).
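Dose response: 5 concentrations. Exposure: 48 h. Format: 96-well plates. Endpoint: linear interpolation; highest concentration if not reached. GI50 marks 50% less growth.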 Activity calls are given as the source filed them. Rule as the data show it: active = GI50 up to about 1.1 µM and inactive = higher.

Tests used:
Test in all cases: growth of human tumour cells (NCI), 48 h
RPMI-8226 = test system: RPMI-8226
OVCAR-3 = test system: OVCAR-3
NCI-H522 = test system: NCI-H522
TK-10 = test system: TK-10
Malme-3M = test system: Malme-3M
DU-145 = test system: DU-145
NCI/ADR-RES = test system: NCI/ADR-RES
RXF 393 = test system: RXF 393
SK-MEL-28 = test system: SK-MEL-28
M14 = test system: M14
OVCAR-4 = test system: OVCAR-4
OVCAR-5 = test system: OVCAR-5
SK-MEL-5 = test system: SK-MEL-5
UACC-62 = test system: UACC-62
PC-3 = test system: PC-3
SF-295 = test system: SF-295
A498 = test system: A498
SNB-75 = test system: SNB-75
HT-29 = test system: HT-29
HCT-116 = test system: HCT-116

Compound | GI50 (RPMI-8226) | GI50 (OVCAR-3) | GI50 (NCI-H522) | GI50 (TK-10) | GI50 (Malme-3M) | GI50 (DU-145) | GI50 (NCI/ADR-RES) | GI50 (RXF 393) | GI50 (SK-MEL-28) | GI50 (M14) | GI50 (OVCAR-4) | GI50 (OVCAR-5) | GI50 (SK-MEL-5) | GI50 (UACC-62) | GI50 (PC-3) | GI50 (SF-295) | GI50 (A498) | GI50 (SNB-75) | GI50 (HT-29) | GI50 (HCT-116)
CN(C)c1ccc(Cc2cc3c(O)ccc(O)c3cc(Cc3ccc(N(C)C)cc3)c2=O)cc1 | 6.25 µM (inactive) | 14.3 µM (inactive) | 3.73 µM (inactive) | 18.6 µM (inactive) | 20.3 µM (inactive) | 26.9 µM (inactive) | 27 µM (inactive) | 9.31 µM (inactive) | 18.9 µM (inactive) | 17.5 µM (inactive) | 18.1 µM (inactive) | > 43.9 µM (inactive) | 19.2 µM (inactive) | 26 µM (inactive) | 15.4 µM (inactive) | 34.4 µM (inactive) | 46.1 µM (inactive) | > 55.8 µM (inactive) | 19.2 µM (inactive) | 11.7 µM (inactive)
CCN(CC)CCNc1nc(N)c(C#N)c(C#N)c1C#N | > 10 µM (inactive) | > 10 µM (inactive) | > 10 µM (inactive) | > 10 µM (inactive) | > 10 µM (inactive) | > 10 µM (inactive) | > 10 µM (inactive) | > 10 µM (inactive) | > 10 µM (inactive) | > 10 µM (inactive) | > 10 µM (inactive) | > 10 µM (inactive) | > 10 µM (inactive) | > 10 µM (inactive) | > 10 µM (inactive) | > 10 µM (inactive) | > 10 µM (inactive) | > 10 µM (inactive) | > 10 µM (inactive) | > 10 µM (inactive)
COC(=O)C1(CCC(=O)N(C)c2ccccc2)NNC2C(=O)N(c3ccccc3)C(=O)C21 (stereo not given) | > 10 µM (inactive) | > 10 µM (inactive) | > 10 µM (inactive) | > 10 µM (inactive) | > 10 µM (inactive) | > 10 µM (inactive) | > 10 µM (inactive) | > 10 µM (inactive) | > 10 µM (inactive) | > 10 µM (inactive) | > 10 µM (inactive) | > 10 µM (inactive) | > 10 µM (inactive) | > 10 µM (inactive) | > 10 µM (inactive) | > 10 µM (inactive) | > 10 µM (inactive) | > 10 µM (inactive) | > 10 µM (inactive) | > 10 µM (inactive)
Cc1cc(/N=C/c2ccc(Cl)cc2)n(-c2ccccc2)n1 | 24.6 µM (inactive) | 22.8 µM (inactive) | 23.1 µM (inactive) | 40.3 µM (inactive) | 49.3 µM (inactive) | 50.9 µM (inactive) | 40.9 µM (inactive) | 22.9 µM (inactive) | 44.6 µM (inactive) | 48.6 µM (inactive) | 33.4 µM (inactive) | 87.5 µM (inactive) | 27.6 µM (inactive) | 54.2 µM (inactive) | 53.8 µM (inactive) | 30.8 µM (inactive) | 21.9 µM (inactive) | 32.4 µM (inactive) | 23.4 µM (inactive) | 26.2 µM (inactive)
CCOP(=O)(OCC)/C(F)=C/c1ccccc1 | > 100 µM (inactive) | > 100 µM (inactive) | > 100 µM (inactive) | > 100 µM (inactive) | > 100 µM (inactive) | > 100 µM (inactive) | > 100 µM (inactive) | > 100 µM (inactive) | > 100 µM (inactive) | > 100 µM (inactive) | > 100 µM (inactive) | > 100 µM (inactive) | > 100 µM (inactive) | > 100 µM (inactive) | > 100 µM (inactive) | > 100 µM (inactive) | > 100 µM (inactive) | > 100 µM (inactive) | > 100 µM (inactive) | > 100 µM (inactive)
O=S(=O)(/N=c1/[nH]c2ccccc2n1S(=O)(=O)c1ccccc1)c1ccccc1 | 35.4 µM (inactive) | 27.9 µM (inactive) | 50.4 µM (inactive) | 47.5 µM (inactive) | 37.2 µM (inactive) | 57.7 µM (inactive) | 44.9 µM (inactive) | 56.8 µM (inactive) | 34.4 µM (inactive) | 25.2 µM (inactive) | 46.6 µM (inactive) | 64.9 µM (inactive) | 47.8 µM (inactive) | 26.7 µM (inactive) | 36.8 µM (inactive) | 41.1 µM (inactive) | 80.9 µM (inactive) | 88.3 µM (inactive) | 44 µM (inactive) | 46.7 µM (inactive)
CCCCNC1CCC2(SCCS2)c2[nH]c3ccccc3c21 (stereo not given) | 1.77 µM (inactive) | 8.41 µM (inactive) | 8.61 µM (inactive) | 13.2 µM (inactive) | 16.5 µM (inactive) | 19.1 µM (inactive) | 21.6 µM (inactive) | 21 µM (inactive) | 34.3 µM (inactive) | 17.1 µM (inactive) | > 54.1 µM (inactive) | 59.7 µM (inactive) | 5.14 µM (inactive) | 20.2 µM (inactive) | 7.46 µM (inactive) | 34.5 µM (inactive) | 20.8 µM (inactive) | 43.1 µM (inactive) | 25.2 µM (inactive) | 7.4 µM (inactive)
O=C(C1OC1c1cccc([N+](=O)[O-])c1)C12CC3CC(CC(C3)C1)C2 (stereo not given) | 2.13 µM (inactive) | 3.81 µM (inactive) | 3.81 µM (inactive) | 18.1 µM (inactive) | 13.7 µM (inactive) | 13.8 µM (inactive) | 3.24 µM (inactive) | 5.33 µM (inactive) | 12.3 µM (inactive) | 8.99 µM (inactive) | 4.27 µM (inactive) | 7.21 µM (inactive) | 10.5 µM (inactive) | 3.74 µM (inactive) | 5.5 µM (inactive) | 6.11 µM (inactive) | 5.13 µM (inactive) | 6.78 µM (inactive) | 3.39 µM (inactive) | 2.14 µM (inactive)
COc1cc(C2c3cc4c(cc3OC(N3CCOCC3)C2C)OCO4)cc(OC)c1O (stereo not given) | 8.2 µM (inactive) | 5.42 µM (inactive) | 2.8 µM (inactive) | 18.7 µM (inactive) | 3.29 µM (inactive) | 29.7 µM (inactive) | 3.35 µM (inactive) | 14.7 µM (inactive) | 12.9 µM (inactive) | 7.29 µM (inactive) | 36.6 µM (inactive) | 46.6 µM (inactive) | 3.18 µM (inactive) | 3.73 µM (inactive) | 6.19 µM (inactive) | 3.59 µM (inactive) | 15.1 µM (inactive) | 1.79 µM (inactive) | 4.04 µM (inactive) | 4.13 µM (inactive)
Oc1cc(Br)cc2cc(Cl)cnc12 | 2.54 µM (inactive) | 1.95 µM (inactive) | 2.35 µM (inactive) | 28.5 µM (inactive) | 2.52 µM (inactive) | 4.56 µM (inactive) | 1.21 µM (inactive) | 1.95 µM (inactive) | 3.29 µM (inactive) | 1.35 µM (inactive) | 1 µM (active) | 18.7 µM (inactive) | 1.71 µM (inactive) | 2.08 µM (inactive) | 3.59 µM (inactive) | 2.08 µM (inactive) | 8.26 µM (inactive) | 8.2 µM (inactive) | 11 µM (inactive) | 1.66 µM (inactive)
CC(=O)O[C@H]1C[C@H]2[C@@H]([C@H](OC(C)=O)C[C@@H]3CC4(CC[C@@]32C)OOC2(CCCCC2)OO4)[C@@H]2CC[C@H]([C@H](C)CCC(N)=O)[C@@]12C | 0.726 µM (active) | 1.54 µM (inactive) | 0.55 µM (active) | 2.6 µM (inactive) | 2.76 µM (inactive) | 1.93 µM (inactive) | 2.2 µM (inactive) | 2.76 µM (inactive) | 8.93 µM (inactive) | 3.33 µM (inactive) | 1.78 µM (inactive) | 2.34 µM (inactive) | 2.15 µM (inactive) | 2.7 µM (inactive) | 1.62 µM (inactive) | 3.67 µM (inactive) | 6.64 µM (inactive) | 2.28 µM (inactive) | 3.4 µM (inactive) | 3.13 µM (inactive)
C=C1C(=O)O[C@@H]2C[C@@]3(C)CCC[C@H](C)C3=C[C@H]12 [HELENINE] | 1.76 µM (inactive) | 6.89 µM (inactive) | 3.18 µM (inactive) | 2.77 µM (inactive) | 3.95 µM (inactive) | 12 µM (inactive) | 7.74 µM (inactive) | 6.12 µM (inactive) | 8 µM (inactive) | 3.08 µM (inactive) | 4.49 µM (inactive) | 17.5 µM (inactive) | 4.8 µM (inactive) | 6.46 µM (inactive) | 11.6 µM (inactive) | 17.5 µM (inactive) | 12.4 µM (inactive) | 3.46 µM (inactive) | 4.29 µM (inactive) | 4.45 µM (inactive)
